Reference: patent publication US7968733B2, “Pyrrolidine analogue for preventing neurogenic pain and method for production thereof” (priority 2006, dated 2011)

Legend:
[1] = system: acromelic acid-induced allodynia; test: Evaluation of allodynia-inhibitory activity (intrathecal co-administration with acromelic acid); type: in vivo, ddY-mouse; conditions: for dose suppressing allodynia induction with equal potency, relative to the compounds of Comparative Examples 5 and 6: fraction of the doses of Comparative Examples 5 and 6, intrathecal with acromelic acid, ddY-mouse, FIG. 3; for allodynia-inhibitory activity: intrathecal, 5 μl solution with 1×10^−15 gram of acromelic acid plus pyrrolidine derivative, ddY-mouse male, allodynia scored 0 to 2 every 5 minutes for 50 minutes, percent of control, FIGS. 1-3
Experimental: In the evaluation, according to the method of Hylden & Wilcox (Hylden, J. L. K. and Wilcox, G. L., Intrathecal morphine in mice: a new technique, Eur. J. Pharmacol, 67 (1980) 313-316.), 5 μl of a solution containing 1×10^−15 gram of acromelic acid and a different dose of pyrrolidine derivative was administrated to ddY-mouse (male, weight 22±2 g) under an unanesthetized condition. One experimental group consisted of 6 mice, and a solution containing 1×10^−15 gram of acromelic acid (5 μl ) was administrated in control groups. After the compound was intrathecally administered, allodynia was assessed once every 5 minutes for 50 minutes by scoring the response in rank order from 0 to 2, and expressed as a percent of the values in control groups, similarly to the method of Yaksh & Harty et al. (Yaksh, T. L. and Harty, G. J., Pharmacology of the allodynia in rats evoked by high dose intrathecal morphine, J. Pharmacol. Exp. Ther., 244 (1988) 501-507.). Allodynic response was ranked as follows: 0, no response; 1, mild squeaking with attempts to move away from the stroking probe; 2, vigorous squeaking evoked by the stroking probe, biting at the probe or strong efforts to escape.

allodynia = conditions: intrathecal administration in mice; Non-patent documents 1 and 4; cited from earlier work

Row | Compound | dose suppressing allodynia induction with equal potency, relative to the compounds of Comparative Examples 5 and 6 [1] | allodynia-inhibitory activity [1] | allodynia-inducing activity (allodynia)
1 | Cc1ccc(O[C@@H]2CN[C@H](C(=O)O)[C@H]2CC(=O)O)c(C(=O)O)c1 [Example 8, (2S,3R,4S)-3-carboxymethyl-4-(2-carboxy-4-methyl-phenoxy)pyrrolidine-2-carboxylate] | approximately one-hundredth | strong allodynia-inhibitory activity | 
2 | O=C(O)C[C@H]1[C@@H](Sc2ccccc2)CN[C@@H]1C(=O)O [Example 18, (2S,3R,4R)-3-carboxy-methyl-4-phenylthiopyrrolidine-2-carboxylate] |  | strong allodynia-inhibitory activity | 
3 | O=C(O)C[C@@H]1[C@@H](C(=O)O)NC[C@H]1Oc1ccccc1C(=O)O [Example 5, (2S,3R,4S)-3-(carboxymethyl)-4-(2-carboxyphenoxy)-pyrrolidine-2-carboxylate] |  | strong allodynia-inhibitory activity | 
4 | Cc1ccc(S[C@H]2CN[C@H](C(=O)O)C2)cc1 [Example 19, (2S,4R)-4-(4-methylphenylthio)pyrrolidine-2-carboxylate] | approximately one-hundredth | strong allodynia-inhibitory activity | 
5 | O=C(O)C[C@@H]1[C@@H](C(=O)O)NC[C@H]1Oc1ccc(C(=O)O)cc1 [Example 1, (2S,3R,4S)-3-carboxymethyl-4-(4-carboxyphenoxy)-pyrrolidine-2-carboxylic acid] |  | strong allodynia-inhibitory activity | 
6 | acromelic acids |  |  | induce severe allodynia
7 | Cc1ccc(S[C@H]2CN[C@H](C(=O)O)[C@H]2CC(=O)O)cc1 [Example 14, (2S,3R,4R)-3-(carboxymethyl)-4-(4-methylphenylthio)-pyrrolidine-2-carboxylate] | approximately one-hundredth | strong allodynia-inhibitory activity | 
8 | COc1ccc(S[C@H]2CN[C@H](C(=O)O)[C@H]2CC(=O)O)cc1 [Example 13, (2S,3R,4R)-3-(carboxymethyl)-4-(4-methoxyphenylthio)-pyrrolidine-2-carboxylate] |  | strong allodynia-inhibitory activity | 
9 | [N-]=[N+]=Nc1ccc(O[C@H]2CN[C@H](C(=O)O)[C@H]2CC(=O)O)c(I)c1 [proline analogue (a)] |  |  | the same degree of allodynia-inducing activity as that of acromelic acids
10 | O=C(O)c1ccc(O[C@@H]2CN[C@H](C(=O)O)C2)cc1 [Example 9, (2S,4S)-4-(4-carboxyphenoxy)pyrrolidine-2-carboxylate] |  | strong allodynia-inhibitory activity | 
